The values below come from patent US20100022415A1, “ACTIVE CARRIER, ITS PRODUCTION AND ITS USE” (AVICOR KET., priority 2006, published 2010).

The experiment relates to streptavidin. The experiment can be described thus: Affinity chromatography: elution of labeled streptavidin from biotinylated glass beads. Format: binding. As to conditions: washing with solutions of increasing concentrations; absorbance of eluate (FIG. 5). On the procedure: The biotinylated glass beads were added to 1 ml PBS, to which 50 μg of streptavidin labeled with Cy5 fluorescent dye was added (total dye: 0.3 OD640/ml). The resulting solution was stirred, then OD640 was measured again, the detected value was 0.003. […] Two chromatographic analyses were performed to verify the specific binding. During the first, 100 mg of the biotinylated glass beads was washed with biotin solutions with increasing concentrations, and in the second, the column containing biotinylated glass beads was washed with benzamidine solutions of increasing concentrations. The absorbance of the eluate was measured continuously (FIG. 5).

In the case of `O=C(O)CCCC[C@@H]1SC[C@@H]2NC(=O)N[C@@H]21` [biotin], the “Elution of fluorescent labeled streptavidin from biotinylated glass beads” value is listed as “could be eluted only with the biotin solution”.
